Measurements taken from ChEMBL document CHEMBL1201862, “PubChem BioAssay data set” (2004).
Values joined by “and” are separate entries in the source; they are usually repeats but may differ in a detail not shown here. Equal values may be shown once.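 Where inhibition never reached the appropriate level, the endpoint shown equals the highest concentration tested. Otherwise, values were interpolated linearly from a five-concentration, 48-hour dose response in 96-well plates. At the GI50, growth is halved.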 Active and inactive are the calls of the source. Cut-off read from the data, not from the text of the source: active = GI50 up to about 1.1 µM and inactive = higher.

Columns and labels:
Test in all cases: NCI tumour cell line growth inhibition, 48 h
786-0 = test system: 786-0
A498 = test system: A498
A549 = test system: A549
ACHN = test system: ACHN
BT-549 = test system: BT-549
CAKI-1 = test system: CAKI-1
CCRF-CEM = test system: CCRF-CEM
COLO 205 = test system: COLO 205
EKVX = test system: EKVX
HCC 2998 = test system: HCC 2998
HCT-116 = test system: HCT-116
HCT-15 = test system: HCT-15
HOP-62 = test system: HOP-62
HOP-92 = test system: HOP-92
IGROV-1 = test system: IGROV-1
K562 = test system: K562
KM12 = test system: KM12
LOX IMVI = test system: LOX IMVI
M14 = test system: M14
MCF7 = test system: MCF7
MDA-MB-231 = test system: MDA-MB-231
MDA-MB-435 = test system: MDA-MB-435
MDA-N = test system: MDA-N
MOLT-4 = test system: MOLT-4
NCI-H226 = test system: NCI-H226
NCI-H23 = test system: NCI-H23
NCI-H460 = test system: NCI-H460
NCI-H522 = test system: NCI-H522
NCI/ADR-RES = test system: NCI/ADR-RES
OVCAR-3 = test system: OVCAR-3
OVCAR-4 = test system: OVCAR-4
OVCAR-5 = test system: OVCAR-5
PC-3 = test system: PC-3
RPMI-8226 = test system: RPMI-8226
RXF 393 = test system: RXF 393
SF-268 = test system: SF-268
SF-295 = test system: SF-295
SF-539 = test system: SF-539
SK-MEL-28 = test system: SK-MEL-28
SK-MEL-2 = test system: SK-MEL-2
SK-MEL-5 = test system: SK-MEL-5
SK-OV-3 = test system: SK-OV-3
SN12C = test system: SN12C
SNB-19 = test system: SNB-19
SNB-75 = test system: SNB-75
SW-620 = test system: SW-620
T47D = test system: T47D
TK-10 = test system: TK-10
UACC-257 = test system: UACC-257
UO-31 = test system: UO-31
DU-145 = test system: DU-145
HT-29 = test system: HT-29
Malme-3M = test system: Malme-3M
OVCAR-8 = test system: OVCAR-8
SR = test system: SR
U-251 = test system: U-251
UACC-62 = test system: UACC-62

With COC(=O)c1cc(-c2ccc(-c3ccc(O)cc3)cc2)cc(-c2ccc(-c3ccc(O)cc3)cc2)c1 the GI50 (786-0) was 5.98 µM (inactive), the GI50 (A498) was 16.4 µM (inactive) and the GI50 (A549) was 8.45 µM (inactive). For the same molecule, the GI50 (ACHN) was 8.71 µM (inactive), the GI50 (BT-549) was 13.7 µM (inactive) and the GI50 (CAKI-1) was 16 µM (inactive). For the same molecule, the GI50 (CCRF-CEM) was 14.8 µM (inactive), the GI50 (COLO 205) was 12.6 µM (inactive) and the GI50 (EKVX) was 11.9 µM (inactive). For the same molecule, the GI50 (HCC 2998) was 11.2 µM (inactive), the GI50 (HCT-116) was 5.64 µM (inactive) and the GI50 (HCT-15) was 7.74 µM. For the same molecule, the GI50 (HOP-62) was 12.1 µM (inactive), the GI50 (HOP-92) was 6.62 µM (inactive) and the GI50 (IGROV-1) was 6.44 µM (inactive). The GI50 (K562) was 4.51 µM (inactive), the GI50 (KM12) was 2.17 µM (inactive) and the GI50 (LOX IMVI) was 6.14 µM (inactive). For the same molecule, the GI50 (M14) was 13.4 µM (inactive), the GI50 (MCF7) was 4.48 µM (inactive) and the GI50 (MDA-MB-231) was 17.9 µM (inactive). For the same molecule, the GI50 (MDA-MB-435) was 10.4 µM (inactive), the GI50 (MDA-N) was 11 µM (inactive) and the GI50 (MOLT-4) was 10.4 µM (inactive). The GI50 (NCI-H226) was 12.7 µM (inactive), the GI50 (NCI-H23) was 8.51 µM (inactive) and the GI50 (NCI-H460) was 17.8 µM (inactive). The GI50 (NCI-H522) was 2.62 µM (inactive), the GI50 (NCI/ADR-RES) was 11.7 µM (inactive) and the GI50 (OVCAR-3) was 12 µM (inactive). For the same molecule, the GI50 (OVCAR-4) was 13.5 µM (inactive), the GI50 (OVCAR-5) was 15.7 µM (inactive) and the GI50 (PC-3) was 10.8 µM (inactive). The GI50 (RPMI-8226) was 10.7 µM (inactive), the GI50 (RXF 393) was 5.62 µM (inactive) and the GI50 (SF-268) was 4.04 µM (inactive). The GI50 (SF-295) was 6.75 µM (inactive), the GI50 (SF-539) was 5.33 µM (inactive) and the GI50 (SK-MEL-28) was 13 µM (inactive). The GI50 (SK-MEL-2) was 15.3 µM (inactive), the GI50 (SK-MEL-5) was 17 µM (inactive) and the GI50 (SK-OV-3) was 15.6 µM (inactive). The GI50 (SN12C) was 13.4 µM (inactive), the GI50 (SNB-19) was 15.5 µM (inactive) and the GI50 (SNB-75) was 7.74 µM (inactive). The GI50 (SW-620) was 7.11 µM (inactive), the GI50 (T47D) was 4.61 µM (inactive) and the GI50 (TK-10) was 13.6 µM (inactive). For the same molecule, the GI50 (UACC-257) was 14.1 µM (inactive) and the GI50 (UO-31) was 11.5 µM (inactive).

With COC1C(OC(C)=O)CC(=O)OC(C)C/C=C/C=C\C(O)C(C)CC(CC=O)C1OC1OC(C)C(OC2CC(C)(O)C(OC(=O)CC(C)C)C(C)O2)C(N(C)C)C1O (configuration not stated) the GI50 (786-0) was > 100 µM (inactive), the GI50 (A498) was > 100 µM (inactive) and 70.3 µM (inactive) and the GI50 (A549) was > 100 µM (inactive). The GI50 (ACHN) was > 100 µM (inactive), the GI50 (BT-549) was > 100 µM (inactive) and the GI50 (CAKI-1) was > 100 µM (inactive). The GI50 (CCRF-CEM) was 45.3 µM (inactive) and 33 µM (inactive), the GI50 (COLO 205) was > 100 µM (inactive) and 69.7 µM (inactive) and the GI50 (DU-145) was 97.9 µM (inactive). For the same molecule, the GI50 (HCC 2998) was > 100 µM (inactive), the GI50 (HCT-116) was > 100 µM (inactive) and the GI50 (HOP-62) was > 100 µM (inactive). For the same molecule, the GI50 (HOP-92) was > 100 µM (inactive), the GI50 (HT-29) was > 100 µM (inactive) and 67.9 µM (inactive) and the GI50 (IGROV-1) was 32.4 µM (inactive) and 25.6 µM (inactive). For the same molecule, the GI50 (K562) was 29.5 µM (inactive) and 51.2 µM (inactive), the GI50 (M14) was 89.3 µM (inactive) and 57.5 µM (inactive) and the GI50 (MCF7) was > 100 µM (inactive) and 62.7 µM (inactive). The GI50 (MDA-MB-231) was > 100 µM (inactive), the GI50 (MDA-MB-435) was 51.1 µM (inactive) and the GI50 (MDA-N) was 61.2 µM (inactive). For the same molecule, the GI50 (Malme-3M) was > 100 µM (inactive), the GI50 (NCI-H226) was > 100 µM (inactive) and the GI50 (NCI-H23) was > 100 µM (inactive). For the same molecule, the GI50 (NCI-H460) was > 100 µM (inactive), the GI50 (NCI-H522) was > 100 µM (inactive) and the GI50 (NCI/ADR-RES) was > 100 µM (inactive). The GI50 (OVCAR-3) was > 100 µM (inactive) and 96.8 µM (inactive), the GI50 (OVCAR-4) was > 100 µM (inactive) and 68.5 µM (inactive) and the GI50 (OVCAR-5) was > 100 µM (inactive). The GI50 (OVCAR-8) was > 100 µM (inactive), the GI50 (PC-3) was 79.6 µM (inactive) and the GI50 (RPMI-8226) was > 100 µM (inactive) and 58.2 µM (inactive). The GI50 (RXF 393) was 82 µM (inactive), the GI50 (SF-268) was 56 µM (inactive) and the GI50 (SF-295) was > 100 µM (inactive). The GI50 (SF-539) was > 100 µM (inactive), the GI50 (SK-MEL-28) was > 100 µM (inactive) and the GI50 (SK-MEL-2) was > 100 µM (inactive). The GI50 (SK-MEL-5) was 46.9 µM (inactive) and 39.3 µM (inactive), the GI50 (SK-OV-3) was > 100 µM (inactive) and the GI50 (SN12C) was > 100 µM (inactive). For the same molecule, the GI50 (SNB-19) was > 100 µM (inactive) and 77.6 µM (inactive), the GI50 (SNB-75) was > 100 µM (inactive) and the GI50 (SR) was 24.6 µM (inactive) and 18.5 µM (inactive). For the same molecule, the GI50 (SW-620) was > 100 µM (inactive), the GI50 (T47D) was > 100 µM (inactive) and the GI50 (TK-10) was > 100 µM (inactive). The GI50 (U-251) was > 100 µM (inactive), the GI50 (UACC-257) was 66.5 µM (inactive) and 70.1 µM (inactive) and the GI50 (UACC-62) was > 100 µM (inactive). For the same molecule, the GI50 (UO-31) was 64.9 µM (inactive) and 43.8 µM (inactive).
